Reference: patent US20130230571A1, “MACROCYCLIC LACTONE COMPOUNDS AND METHODS FOR THEIR USE” (Elixir Medical Corporation, priority 2010, published 2013)
Entries after “also recorded” stand apart in the source; their conditions may differ.

Key:
[1] = cited from earlier work
MCP-1 = MCP-1 production by LPS-activated macrophages, ELISA; assay type: cell-based; details: 10 nM
Description: (§1) In cell culture studies, macrophages were activated to secrete cytokines such as MMP-9 and MCP-1 by treating the cells to E Coli lippopolysaccharide (LPS). Inhibition of these cytokines upon treatment of the activated macrophages with myolimus and rapamycin with 10 nM concentration was tested using ELISA assay.

human smooth muscle cell = experiment: in vitro human smooth muscle cell culture testing, incorporated thymidine; assay type: cell-based; details: exposure for 8 hours; human smooth muscle cells; read-out: IC50 (incorporated thymidine, anti-proliferative)
Description: The amounts of incorporated thymidine for samples of myolimus of varying concentrations (0.0001, 0.001, 0.01, 0.1, and 1 μM) and of rapamycin of varying concentrations (0.0001, 0.001, 0.01, 0.1, and 1 μM) were measured after exposure for 8 hours (as shown in FIG. 1). The IC50 of both myolimus and rapamycin was 0.1 nM indicating potent anti-proliferative properties.

MMP-9 = MMP-9 production by LPS-activated macrophages, ELISA; assay type: cell-based; details: 10 nM
Description: as §1

Compound | solubility in water [1] | production of cytokine MCP-1 (MCP-1) | IC50 (human smooth muscle cell) | production of the cytokine MMP-9 (MMP-9) | production of the cytokine MMP-9 (MMP-9; listed as Rapamycin) | production of cytokine MCP-1 (MCP-1; listed as Myolimus) | production of the cytokine MMP-9 (MMP-9; listed as Myolimus)
CO[C@H]1C[C@@H]2CC[C@@H](C)[C@@](O)(O2)C(=O)C(=O)N2CCCC[C@H]2C(=O)O[C@H]([C@H](C)C[C@@H]2CC[C@@H](O)[C@H](OC)C2)CC(=O)[C@H](C)/C=C(\C)[C@@H](O)[C@@H](OC)C(=O)[C@H](C)C[C@H](C)/C=C/C=C/C=C/1C [rapamycin, Rapamycin] | very slightly soluble in water | did not impact the production of MCP-1; also recorded: did not have any impact | 0.1 nM | increased the production of MMP-9 | increased the production | – | –
CO[C@H]1C[C@@H]2CC[C@@H](C)[C@@](O)(O2)C(=O)C(=O)N2CCCC[C@H]2C(=O)O[C@H]([C@H](C)C[C@@H]2CC[C@@H](O)[C@H](OC)C2)CC[C@H](C)/C=C(\C)[C@@H](O)[C@@H](OC)C(=O)[C@H](C)C[C@H](C)/C=C/C=C/C=C/1C [myolimus, 32-deoxo-rapamycin] | – | inhibiting the production | 0.1 nM | inhibiting production of MMP-9 | – | reduced the production | reduced the production
